What follows are compounds tested against T1, human Syk (GST-Syk) (Homo sapiens, UniProt P43405) (assay: Syk tyrosine kinase inhibitory assay). Details: Table 11; read-out: Activity grade.
T1 construct: A cDNA fragment encoding human Syk openreading frame was cloned; made in house; host or cells: Sf21 insect cells (baculovirus, transfer vector pAcG2T)
Assay type: biochemical
Method in brief: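 Readout: streptavidin-captured biotin-AL peptide probed with europium-4G10 anti-phosphotyrosine, time-resolved fluorescence (ex 340/em 615 nm). Reaction ran 1 h at room temperature with 30 μM ATP, 3 μM peptide, 0.65 nM Sf21-expressed GST-Syk and 0.25% DMSO, pH 8.0.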

| SMILES | IC50 [nM] |
| --- | --- |
| COc1cc(-c2cc3nccn3c(Nc3ccc(Cl)cn3)n2)ccc1N1CCOCC1 [Example 12-48] | < 500 |
| COc1cc(-c2cc3nccn3c(Nc3ccccc3)n2)ccc1OCCCN1CCOCC1 [Example 12-16] | < 500 |
| CCOCCOc1cc(-c2cc3nccn3c(Nc3ccccc3)n2)ccc1OC [Example 12-28] | < 500 |
| COC(=O)c1ccc(Nc2nc(-c3ccc(OC)c(OC)c3)cc3nccn23)s1 [Example 12-5] | 500 to 2000 |
| COCCCN(C)c1ccc(-c2cc3nccn3c(Nc3ccc(OC)cc3)n2)cc1OC [Example 12-56] | < 500 |
| COc1ccc(-c2cc3nccn3c(Nc3ccccc3)n2)cc1O [Example 12-10] | < 500 |
| COc1ccc(-c2cc3nccn3c(Nc3cc(OC)c(OC)c(OC)c3)n2)cc1OC [Example 12-14] | < 500 |

Same assay, conditions: Table 13; read-out: Activity grade

| SMILES | IC50 [nM] |
| --- | --- |
| COc1ccc(-c2cc3nccn3c(SCCC(C)C)n2)cc1OC [Example 14-28] | 500 to 2000 |
| COc1ccc(-c2cc3nccn3c(SC3CCCC3)n2)cc1OC [Example 14-21] | < 500 |
| COc1ccc(-c2cc3ncnn3c(Oc3ccc(CCC(=O)O)cc3)n2)cc1OC [Example 14-12] | 500 to 2000 |
| COc1ccc(-c2cc3ncnn3c(Sc3ccc(NCC(=O)O)cc3)n2)cc1OC [Example 14-11] | < 500 |
| COc1ccc(-c2cc3nccn3c(SCCc3ccccc3)n2)cc1OC [Example 14-25] | 500 to 2000 |
| COC(=O)c1cccnc1Nc1nc(-c2ccc(OC)c(OC)c2)cc2nccn12 [Example 14-36] | 2000 to 10000 |

Same assay, conditions: Table 14; read-out: Activity grade

| SMILES | IC50 [nM] |
| --- | --- |
| COc1ccc(-c2cc3nccn3c(Sc3ccc(C(F)(F)F)cn3)n2)cc1OC [Example 15-1] | < 500 |
| COc1ccc(-c2cc3nccn3c(NC3CCCCC3)n2)cc1OC [Example 15-4] | 500 to 2000 |

Same assay, conditions: Table 15; read-out: Activity grade

| SMILES | IC50 [nM] |
| --- | --- |
| COc1ccc(-c2cc3nccn3c(Sc3ccncc3N)n2)cc1OC [Example 16-7] | < 500 |

Same assay, conditions: Table 16; read-out: Activity grade

| SMILES | IC50 [nM] |
| --- | --- |
| CCSc1nc(-c2ccc(NCCCN3CCCC3=O)c(OC)c2)cc2nccn12 [Example 17-3] | < 500 |
| COc1ccc(Nc2nc(-c3ccc(N4CCCC4)c(OC)c3)cc3nccn23)cc1 [Example 17-16] | < 500 |
| CCSc1nc(-c2ccc(NCCCn3ccnc3)c(OC)c2)cc2nccn12 [Example 17-11] | < 500 |

Same assay, conditions: Table 17; IC50 classes; read-out: Activity grade

| SMILES | IC50 [nM] |
| --- | --- |
| COc1ccc(-c2cc3nccn3c(Sc3ccc(CCc4nnn[nH]4)cc3)n2)cc1OC [Example 24] | < 500 |
| CCSc1nc(-c2ccc(OC)c([N+](=O)[O-])c2)cc2nccn12 [Example 27] | < 500 |
| COc1ccc(-c2cc3nccn3c(Nc3ccccc3)n2)cc1N [compound 1] | 500 to 2000 |
| COc1ccc(-c2cc3nccn3c(NC(=O)c3ccccc3)n2)cc1OC [Example 16] | 500 to 2000 |
| COc1ccc(-c2cc3nccn3c(Nc3ccccc3)n2)cc1NC(C)=O [Example 3] | < 500 |
| COc1ccc(-c2cc3nccn3c(Nc3ccc(C(=O)N(C)CCO)cc3)n2)cc1OC [compound 6] | < 500 |

Same assay, conditions: in vitro; compounds as yielded by solid phase synthesis, purity about 40 to 90%

| SMILES | Activity grade (IC50 class) |
| --- | --- |
| CCSc1nc(-c2ccc(F)c(F)c2)cc2nccn12 [Example 8-7] | C-D |
| COC(=O)[C@@H]1CCCN1c1nc(-c2ccc(OC)c(OC)c2)cc2nccn12 [Example 9-71] | C-D |

Same assay, conditions: in vitro; compounds as yielded by solid phase synthesis, purity about 40 to 90%; read-out: Activity grade (IC50 class)

| SMILES | IC50 [nM] |
| --- | --- |
| COc1ccc(-c2cc3nccn3c(N3CCC(C(N)=O)CC3)n2)cc1OC [Example 9-57] | < 500 |
| COc1ccc(-c2cc3nccn3c(Sc3ccc(CCCC(=O)O)cc3)n2)cc1OC [Example 13-21] | 2000 to 10000 |
| COc1ccc(-c2cc3nccn3c(NCCc3c[nH]c4ccccc34)n2)cc1OC [Example 9-83] | < 500 |
| COc1ccc(-c2cc3nccn3c(Nc3cccc(CO)c3)n2)cc1OC [Example 11-37] | < 500 |
| COc1ccc(-c2cc3nccn3c(N3CCN(CCO)CC3)n2)cc1OC [Example 9-51] | 2000 to 10000 |
| COc1ccc(-c2cc3nccn3c(N3CCN(c4ccccn4)CC3)n2)cc1OC [Example 9-38] | 500 to 2000 |
| CCSc1nc(-c2ccc(OCCCN3CCOCC3)c(OC)c2)cc2nccn12 [Example 5-1] | < 500 |
| CNc1nc(-c2ccc(OC)c(OC)c2)cc2nccn12 [Example 9-12] | 500 to 2000 |
| COc1ccc(Nc2nc(-c3ccc(OC)c(OC)c3)cc3nccn23)cc1NCCN(C)CCO [Example 11-112] | 500 to 2000 |
| COc1ccc(-c2cc3nccn3c(Nc3ccc(F)cc3F)n2)cc1OC [Example 11-54] | < 500 |
| COc1ccc(-c2cc3nccn3c(N(C)c3ccc(OC(F)(F)F)cc3)n2)cc1OC [Example 11-46] | 500 to 2000 |
| COc1ccc(-c2cc3nccn3c(Nc3ccc(S(=O)(=O)NC(=N)N)cc3)n2)cc1OC [Example 11-110] | < 500 |
| CCSc1nc(-c2ccc(OCc3ccc(OC)cc3)c(OC)c2)cc2nccn12 [Example 3-3] | 500 to 2000 |
| COc1ccc(-c2cc3nccn3c(N(C)c3ccccc3OC)n2)cc1OC [Example 11-25] | 500 to 2000 |
| COc1ccc(-c2cc3nccn3c(NC(=O)c3ccccc3)n2)cc1OC [Example 16] | < 500 |
| CCN(CCO)c1ccc(Nc2nc(-c3ccc(OC)c(OC)c3)cc3nccn23)cc1 [Example 11-68] | < 500 |
| COc1ccc(-c2cc3nccn3c(N(C)c3ccc(F)cc3F)n2)cc1OC [Example 11-44] | < 500 |
| COc1ccc(-c2cc3nccn3c(Sc3cccc(C(=O)O)c3)n2)cc1OC [Example 9-93] | 500 to 2000 |
| COc1ccc(-c2cc3nccn3c(N(C)CCC(O)c3ccccc3)n2)cc1OC (centres unmarked) [Example 9-53] | < 500 |

| SMILES | IC50 [nM] |
| --- | --- |
| COc1ccc(-c2cc3nccn3c(N3CCN(C)CC3)n2)cc1OC [Example 9-37] | 500 to 2000 |
| CCCCOC(=O)CSc1nc(-c2ccc(OC)c(OC)c2)cc2nccn12 [Example 9-92] | 500 to 2000 |
| COc1ccc(-c2cc3nccn3c(Nc3ccc(C(=O)O)cc3)n2)cc1OC [Example 11-28] | < 500 |
| COc1ccc(-c2cc3nccn3c(Nc3ccc(CCC(=O)O)cc3C(N)=O)n2)cc1OC [Example 11-104] | < 500 |
| CCSc1nc(-c2cccc(OC)c2)cc2nccn12 [Example 8-1] | 500 to 2000 |
| CCOc1ccc(-c2cc3nccn3c(SCC)n2)cc1OCC [Example 6-1] | < 500 |
| CCSc1nc(-c2ccc(OS(C)(=O)=O)c(OC)c2)cc2nccn12 [Example 3-10] | 500 to 2000 |
| COc1ccc(-c2cc3nccn3c(N3CCN(C(C)=O)CC3)n2)cc1OC [Example 9-49] | 500 to 2000 |
| COc1ccc(Nc2nc(-c3ccc(OC)c(OC)c3)cc3nccn23)cc1NC(=O)CN1CCOCC1 [Example 11-83] | 500 to 2000 |
| COc1ccc(-c2cc3nccn3c(N3CC[C@H](N(C)C)C3)n2)cc1OC [Example 9-78] | 2000 to 10000 |
| COc1ccc(-c2cc3nccn3c(Nc3ccc(OC(C)C)cc3)n2)cc1OC [Example 11-98] | < 500 |
| COc1ccc(-c2cc3nccn3c(Nc3cc(F)cc(F)c3)n2)cc1OC [Example 11-39] | < 500 |
| COc1ccc(-c2cc3nccn3c(Nc3ccc(NCCN(C)C)cc3)n2)cc1OC [Example 11-74] | < 500 |
| COC(=O)c1cc(Br)ccc1Nc1nc(-c2ccc(OC)c(OC)c2)cc2nccn12 [Example 11-86] | < 500 |
| COc1ccc(-c2cc3nccn3c(Nc3ccccc3S(C)(=O)=O)n2)cc1OC [Example 11-119] | < 500 |
| CCSc1nc(-c2cccnc2)cc2nccn12 [Example 8-2] | 2000 to 10000 |
| CCSc1nc(-c2ccc(OCCCN(C)CC)c(OC)c2)cc2nccn12 [Example 5-2] | < 500 |
| COc1ccc(-c2cc3nccn3c(Sc3ccc(CCC(=O)O)cc3OC)n2)cc1OC [Example 9-94] | < 500 |
| COc1ccc(-c2cc3nccn3c(Nc3ccccc3Cl)n2)cc1OC [Example 11-55] | < 500 |

| SMILES | IC50 [nM] |
| --- | --- |
| COc1ccc(-c2cc3nccn3c(NCCN)n2)cc1OC [Example 9-81] | 500 to 2000 |
| COc1ccc(-c2cc3nccn3c(N3CCN(c4ccc(C)cc4)CC3)n2)cc1OC [Example 9-44] | 2000 to 10000 |
| COc1ccc(-c2cc3nccn3c(N(C)C3CCN(C)C3)n2)cc1OC (centres unmarked) [Example 9-74] | 500 to 2000 |
| COc1ccccc1Nc1nc(-c2ccc(OC)c(OC)c2)cc2nccn12 [Example 11-8] | < 500 |
| COc1ccc(-c2cc3nccn3c(N(C)c3ccccc3)n2)cc1OC [Example 11-18] | < 500 |
| COc1ccc(-c2cc3nccn3c(N(C)c3ccc([N+](=O)[O-])cc3)n2)cc1OC [Example 11-43] | < 500 |
| CNC(=O)c1cccc(Nc2nc(-c3ccc(OC)c(OC)c3)cc3nccn23)c1 [Example 11-72] | < 500 |
| COc1ccc(-c2cc3nccn3c(Sc3ccc(/C=C/C(=O)O)c(C)c3)n2)cc1OC [Example 13-22] | < 500 |
| COc1ccc(-c2cc3nccn3c(N3CCC4(CC3)OCCO4)n2)cc1OC [Example 9-66] | 2000 to 10000 |
| CCC(=O)c1ccc(Nc2nc(-c3ccc(OC)c(OC)c3)cc3nccn23)cc1 [Example 11-35] | < 500 |
| COc1ccc(-c2cc3nccn3c(N3CC[C@@H](NC(=O)C(F)(F)F)C3)n2)cc1OC [Example 9-70] | 2000 to 10000 |
| COC(=O)CSc1nc(-c2ccc(OC)c(OC)c2)cc2nccn12 [Example 9-88] | < 500 |
| COc1ccc(Nc2nc(-c3ccc(N4CCOCC4)c(OC)c3)cc3nccn23)c(C(N)=O)c1 [Example 9-98] | < 500 |
| CCSc1nc(-c2ccc(OCCCN(C)CCO)c(OC)c2)cc2nccn12 [Example 5-3] | < 500 |
| COc1ccc(-c2cc3nccn3c(SCC3CC3)n2)cc1OC [Example 9-7] | < 500 |
| COc1ccc(-c2cc3nccn3c(Sc3ncccn3)n2)cc1OC [Example 13-13] | < 500 |
| COc1ccc(-c2cc3nccn3c(Sc3ccc4c(c3)CNCC4)n2)cc1OC [Example 13-14] | < 500 |
| COc1ccc(-c2cc3nccn3c(N3CCN(c4ccc(Cl)cc4)CC3)n2)cc1OC [Example 9-39] | 2000 to 10000 |
